From patent publication US20110244063A1, “NOVEL SEBUM SECRETION INHIBITORY AGENT” (BASF Beauty Care Solutions France S.A.S., priority 2008, published 2011)

Columns and labels:
Assay type in all cases: in vivo, human
[1] = system: Caucasian and Asian volunteers; assay: Clinical assessment of pore size and shiny appearance in volunteers, once-daily topical application; conditions: after 28 days of treatment, extract at 2%, zinc gluconate 1%
Method: (§1) The principle of this evaluation is based on the clinical and instrumental analysis of samples of secretions of sebum using Sebutape™ patches according to the conventional method.
(§2) The products tested were: • the extract according to the invention prepared in accordance with Example 1 a) is tested at final concentrations of from 0.5% to 2% of extract 1 a) diluted in water • an aqueous solution of zinc gluconate at 1% (10 mg/mL; 2.2×10^−2 mol/L) in water is used as positive control • no solution as negative control
(§3) The following treatment was carried out for each of the products tested: Caucasian and Asian volunteers applied a test product once a day, in blind conditions. Clinical and instrumental assessments, by application of Sebutape™ patches, were carried out on D0, D14 and D28 and the contents of these samples of Sebutape™ patches were analysed quantitatively by image analyser (polarimetric imaging).
(§4) The experiment was conducted on Caucasian and Asian volunteers according to the conditions described in Example 3 for 28 days of treatment (last application on D27 in the evening). Assessments carried out on D30 allowed the persistence of the effect of an extract according to the invention on the production of sebum to be evaluated, two days after stopping the treatment.

[2] = system: Caucasian and Asian volunteers; assay: Squalene content of sebum sampled with Sebutape patches (HPTLC, densitometry); conditions: after 28 days of treatment; zinc gluconate 1%; signed change
Method: as §1, §2, §3
Determination of the squalene taken in the Sebutape™ patches was carried out as follows:
The Sebutape™ patches were treated by extraction with 10 ml of ether. […]
The squalene spots were then quantified by densitometry using an instrument of the ChromatoScan CS-93 (Shimadzu) type. Reading was based on absorption at 450 nm and the area of the peaks was expressed in arbitrary units in the table of results given below.

[3] = system: Caucasian and Asian volunteers; assay: Number of active sebaceous glands (number of spots on Sebutape patches, image analysis)
Method: as §1, §2
as §3, with “imaging). […]” for “imaging).”
as §4

Asian volunteers = assay: Self-evaluation of skin texture (refinement of skin grain) after stopping treatment; conditions: 2 days after stopping the treatment, extract at 2%, zinc gluconate positive control
Method: as §4
Results for skin texture: (self-evaluation)
Moreover, 2 days after stopping the treatment, 71% of the Asian volunteers who had applied the extract according to Example 1 a) at 2% declared that there was refinement of their skin grain (p<0.05). In comparison, only 52% of the volunteers in the group of volunteers who had applied the positive control (zinc gluconate) noticed an improvement in this parameter.

With zinc gluconate [Zinc gluconate 1%] the “Reduction of pore size (clinical assessment)” value [1] was 17.5%, the “Change of content of squalene in the sebum” value [2] was −14% and the “Active sebaceous glands, % Dn/D0, 2 days after D28” value ([3]; number of spots on Sebutape patches 2 days after stopping the treatment compared against D0) was −3.8%. The “Active sebaceous glands, % Dn/D0, D28” value ([3]; number of spots on Sebutape patches after 28 days compared against D0) was “+8.5%” and the “Volunteers who declared refinement of their skin grain (self-evaluation)” value (Asian volunteers) was 52%.
